# ChEMBL document CHEMBL5244239, “Penicillin binding protein 2a: An overview and a medicinal chemistry perspective” (Eur J Med Chem, 2020)
# Experiments:
# Staphylococcus aureus [1] = assay: Antibacterial activity against methicillin resistant Staphylococcus aureus; format: functional
# Enterococcus faecium = assay: Antibacterial activity against vancomycin-resistant Enterococcus faecium; format: functional
# MecA [2] = target: T1, MecA (Staphylococcus aureus, UniProt Q7DHH4); assay: Binding affinity to Staphylococcus aureus ATCC 43300 PBP2a
# T1 sequence (Q7DHH4 whole entry): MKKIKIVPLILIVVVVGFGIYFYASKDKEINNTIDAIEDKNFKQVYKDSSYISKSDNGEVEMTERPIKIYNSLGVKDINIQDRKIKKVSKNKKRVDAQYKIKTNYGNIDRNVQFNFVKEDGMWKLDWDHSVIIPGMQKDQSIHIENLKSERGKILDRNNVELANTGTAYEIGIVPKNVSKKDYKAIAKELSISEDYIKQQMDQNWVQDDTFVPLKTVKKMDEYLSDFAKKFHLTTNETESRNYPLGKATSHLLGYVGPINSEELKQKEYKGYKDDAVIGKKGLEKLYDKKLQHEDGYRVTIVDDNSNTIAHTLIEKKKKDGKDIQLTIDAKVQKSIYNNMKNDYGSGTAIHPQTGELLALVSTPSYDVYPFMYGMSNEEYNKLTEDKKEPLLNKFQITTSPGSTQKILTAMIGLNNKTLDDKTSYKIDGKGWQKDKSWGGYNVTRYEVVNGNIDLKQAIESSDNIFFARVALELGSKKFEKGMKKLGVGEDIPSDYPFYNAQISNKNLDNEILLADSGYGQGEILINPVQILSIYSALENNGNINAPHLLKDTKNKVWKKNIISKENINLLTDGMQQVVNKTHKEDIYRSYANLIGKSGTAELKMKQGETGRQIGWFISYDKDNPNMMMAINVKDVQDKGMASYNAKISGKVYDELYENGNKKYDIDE
# [3] = target: T2, Penicillin-binding protein 2x (Streptococcus pneumoniae serotype 4 (strain ATCC BAA-334 / TIGR4), UniProt P14677); assay: Binding affinity to Streptococcus pneumoniae PBP2x
# T2 sequence (P14677 whole entry): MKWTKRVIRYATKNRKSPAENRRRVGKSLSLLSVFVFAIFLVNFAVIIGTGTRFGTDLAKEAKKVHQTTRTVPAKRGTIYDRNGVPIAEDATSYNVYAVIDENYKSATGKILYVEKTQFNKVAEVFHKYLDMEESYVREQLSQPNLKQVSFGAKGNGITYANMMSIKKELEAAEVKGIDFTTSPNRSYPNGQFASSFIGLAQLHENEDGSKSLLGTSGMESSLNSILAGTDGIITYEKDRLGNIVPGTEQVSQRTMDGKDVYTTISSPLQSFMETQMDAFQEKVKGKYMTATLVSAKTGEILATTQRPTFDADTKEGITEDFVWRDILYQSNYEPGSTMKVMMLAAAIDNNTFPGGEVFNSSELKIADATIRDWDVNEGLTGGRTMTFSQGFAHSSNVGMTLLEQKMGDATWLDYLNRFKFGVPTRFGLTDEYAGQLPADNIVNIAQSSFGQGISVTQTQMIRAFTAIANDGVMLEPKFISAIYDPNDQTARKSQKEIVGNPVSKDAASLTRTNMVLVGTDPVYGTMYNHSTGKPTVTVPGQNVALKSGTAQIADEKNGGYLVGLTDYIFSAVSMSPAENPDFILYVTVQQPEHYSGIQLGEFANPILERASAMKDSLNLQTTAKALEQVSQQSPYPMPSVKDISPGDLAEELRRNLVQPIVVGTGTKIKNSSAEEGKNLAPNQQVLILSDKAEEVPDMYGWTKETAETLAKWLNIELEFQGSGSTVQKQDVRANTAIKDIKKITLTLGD
# Staphylococcus aureus [4] = assay: Antibacterial activity against methicillin resistant Staphylococcus aureus ATCC 43300; format: functional
# Staphylococcus aureus [5] = assay: Antibacterial activity against methicillin resistant Staphylococcus aureus mp 1; format: functional
# Staphylococcus aureus [6] = assay: Potentiation of oxacillin against methicillin resistant Staphylococcus aureus OM505 assessed as fold increase in oxacillin activity; format: functional
# Staphylococcus aureus [7] = assay: Potentiation of oxacillin against methicillin resistant Staphylococcus aureus OM584 assessed as fold increase in oxacillin activity; format: functional
# Staphylococcus aureus [8] = assay: Potentiation of oxacillin against methicillin resistant Staphylococcus aureus OM481 assessed as fold increase in oxacillin activity; format: functional
# Staphylococcus aureus [9] = assay: Potentiation of oxacillin against methicillin resistant Staphylococcus aureus OM623 assessed as fold increase in oxacillin activity; format: functional
# MecA [10] = target: T1, MecA; assay: Binding affinity to methicillin resistant Staphylococcus aureus PBP2a by MST method
# MecA [11] = target: T1, MecA; assay: Inhibition of Staphylococcus aureus PBP2a
smiles,measurement,setting,value
Nc1ccc(-c2nc(-c3ccc(Oc4ccc(C(F)(F)F)cc4)cc3)no2)cc1,MIC,Staphylococcus aureus [1],1 µg/mL
same,MIC,Enterococcus faecium,1 µg/mL
CCCCOc1ccc2cc(S(=O)(=O)Nc3ccccc3C(=O)O)ccc2c1,IC50,MecA [2],97 µM
same,IC50,[3],391 µM
same,MIC,Staphylococcus aureus [4],32 µg/mL
same,MIC,Staphylococcus aureus [5],32 µg/mL
O=C(O[C@@H]1O[C@@H]2COC(=O)c3cc(O)c(O)c(O)c3-c3c(cc(O)c(O)c3O)C(=O)O[C@H]([C@H]1O)[C@@H]2O)c1cc(O)c(O)c(O)c1 [CORILAGIN],fold change (FC),Staphylococcus aureus [6],100
same,fold change (FC),Staphylococcus aureus [7],100
same,fold change (FC),Staphylococcus aureus [8],100
same,fold change (FC),Staphylococcus aureus [9],100
O=C(O[C@H]1[C@@H]2OC(=O)c3cc(O)c(O)c(O)c3-c3c(cc(O)c(O)c3O)C(=O)OC[C@H]2OC(O)[C@@H]1OC(=O)c1cc(O)c(O)c(O)c1)c1cc(O)c(O)c(O)c1 (some centres undefined),fold change (FC),Staphylococcus aureus [6],100
same,fold change (FC),Staphylococcus aureus [7],100
same,fold change (FC),Staphylococcus aureus [8],100
same,fold change (FC),Staphylococcus aureus [9],100
COC(=O)C1=C[C@]2(C)C[C@@]34CC[C@@H]5[C@H](C=CC(=O)C5(C)C)[C@]35OC[C@]14[C@](C)(CC2=O)O5,Kd,MecA [10],18.4 µM
same,MIC,Staphylococcus aureus [1],32 µg/mL
Oc1ccc(-c2nc(-c3ccc(Oc4ccccc4)cc3)no2)cc1,MIC,Staphylococcus aureus [1],1 µg/mL
same,MIC,Enterococcus faecium,1 µg/mL
CC(=O)/C(=C/c1cn(CC(=O)N2CCCCC2)c2ccccc12)n1cc([N+](=O)[O-])nc1C,MIC,Staphylococcus aureus [1],1 µg/mL
CC1(C)S[C@@H]2[C@H](N)C(=O)N2[C@H]1C(=O)O,IC50,MecA [11],7000 µM
Nc1nc(/C(=N/O)C(=O)N[C@@H]2C(=O)N3C(C(=O)O)=C(/C=C4\CCN([C@@H]5CCNC5)C4=O)CS[C@H]23)ns1 [CEFTOBIPROLE],MIC,Staphylococcus aureus [1],0.5 µg/mL
CCCOc1cccc(C(=O)Nc2ccc(C)cc2C(=O)O)c1,IC50,MecA [2],680 µM
same,MIC,Staphylococcus aureus [4],256 µg/mL
same,MIC,Staphylococcus aureus [5],256 µg/mL
